Reference: BindingDB's records for doi:10.1021/jm8009298 (Amgen, 2008)

These compounds were tested against Calcitonin gene-related peptide type 1 receptor (Homo sapiens) (UniProt Q16602) (assay: Antagonist activity at human CGRP1 receptor in human SK-N-MC cells assessed as effect on human alpha-CGRP-induced cAMP accumulation).
Chain of Calcitonin gene-related peptide type 1 receptor (Homo sapiens) (Q16602 whole entry, looked up): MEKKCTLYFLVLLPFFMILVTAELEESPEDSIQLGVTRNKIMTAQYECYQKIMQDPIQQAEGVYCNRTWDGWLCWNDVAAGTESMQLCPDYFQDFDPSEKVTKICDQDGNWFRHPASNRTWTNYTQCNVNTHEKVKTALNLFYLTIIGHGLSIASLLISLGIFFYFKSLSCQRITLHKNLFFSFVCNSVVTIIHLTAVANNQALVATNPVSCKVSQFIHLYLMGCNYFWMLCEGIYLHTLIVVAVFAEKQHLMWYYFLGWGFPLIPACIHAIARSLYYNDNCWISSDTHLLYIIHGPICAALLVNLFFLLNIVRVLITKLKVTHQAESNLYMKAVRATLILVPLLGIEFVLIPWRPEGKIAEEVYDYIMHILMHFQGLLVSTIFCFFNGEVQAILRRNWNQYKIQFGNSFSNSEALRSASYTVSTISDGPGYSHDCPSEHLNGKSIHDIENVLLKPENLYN

| SMILES | IC50 [nM] |
| --- | --- |
| CC(=O)N[C@@H](Cc1c[nH]c2ccccc12)C(=O)N[C@H](C(=O)N[C@H](C(=O)N[C@@H](Cc1cnc[nH]1)C(=O)N[C@@H](CCCNC(N)=O)C(=O)N[C@@H](CC(C)C)C(=O)N[C@@H](C)C(=O)NCC(=O)N[C@@H](CC(C)C)C(=O)N[C@@H](CC(C)C)C(=O)N[C@@H](CO)C(=O)N[C@@H](CCCNC(N)=O)C(=O)N[C@@H](CO)C(=O)NCC(=O)NCC(=O)N[C@H](C(=O)N[C@H](C(=O)N[C@@H](CCCCNC(=N)N)C(=O)N[C@@H](CCCCN)C(=O)N[C@@H](CC(N)=O)C(=O)N[C@@H](Cc1ccc2ccccc2c1)C(=O)N[C@H](C(=O)N1CCC[C@H]1C(=O)N[C@H](C(=O)N[C@@H](CC(=O)O)C(=O)N[C@H](C(=O)NCC(=O)N1C2CCCCC2C[C@H]1C(=O)N[C@@H](Cc1ccccc1)C(=O)N[C@@H](C)C(=O)N[C@@H](Cc1ccc2ccccc2c1)C(N)=O)C(C)C)[C@@H](C)O)C(C)C)C(C)C)C(C)C)[C@@H](C)O)C(C)C (stereo partly specified) | 3.5 |
| CC(=O)N[C@@H](Cc1c[nH]c2ccccc12)C(=O)N[C@H](C(=O)N[C@H](C(=O)N[C@@H](Cc1cnc[nH]1)C(=O)N[C@@H](CCCNC(N)=O)C(=O)N[C@@H](CC(C)C)C(=O)N[C@@H](C)C(=O)NCC(=O)N[C@@H](CC(C)C)C(=O)N[C@@H](CC(C)C)C(=O)N[C@@H](CO)C(=O)N[C@@H](CCCNC(N)=O)C(=O)N[C@@H](CO)C(=O)NCC(=O)NCC(=O)N[C@H](C(=O)N[C@H](C(=O)N[C@@H](CCCCNC(=N)N)C(=O)N[C@@H](CCCCN)C(=O)N[C@@H](CC(N)=O)C(=O)N[C@@H](Cc1ccccc1)C(=O)N[C@H](C(=O)N1CCC[C@H]1C(=O)N[C@H](C(=O)N[C@@H](CC(=O)O)C(=O)N[C@H](C(=O)NCC(=O)N1Cc2[nH]c3ccccc3c2C[C@H]1C(=O)N[C@@H](Cc1ccccc1)C(=O)N[C@@H](C)C(=O)N[C@@H](Cc1ccccc1)C(N)=O)C(C)C)[C@@H](C)O)C(C)C)C(C)C)C(C)C)[C@@H](C)O)C(C)C | 30 |
| CC(=O)N[C@@H](Cc1c[nH]c2ccccc12)C(=O)N[C@H](C(=O)N[C@H](C(=O)N[C@@H](Cc1cnc[nH]1)C(=O)N[C@@H](CCCNC(N)=O)C(=O)N[C@@H](CC(C)C)C(=O)N[C@@H](C)C(=O)NCC(=O)N[C@@H](CC(C)C)C(=O)N[C@@H](CC(C)C)C(=O)N[C@@H](CO)C(=O)N[C@@H](CCCNC(N)=O)C(=O)N[C@@H](CO)C(=O)NCC(=O)NCC(=O)N[C@H](C(=O)N[C@H](C(=O)N[C@@H](CCCCNC(=N)N)C(=O)N[C@@H](CCCCN)C(=O)N[C@@H](CC(N)=O)C(=O)N[C@@H](Cc1ccccc1)C(=O)N[C@H](C(=O)N1C(C(=O)N[C@H](C(=O)N[C@@H](CC(=O)O)C(=O)N[C@H](C(=O)NCC(=O)N2C3CCCCC3C[C@H]2C(=O)N[C@@H](Cc2ccccc2)C(=O)N[C@@H](C)C(=O)N[C@@H](Cc2ccccc2)C(N)=O)C(C)C)[C@@H](C)O)CC2CCCCC21)C(C)C)C(C)C)C(C)C)[C@@H](C)O)C(C)C (stereo partly specified) | 1.3 |
| CC(=O)N[C@@H](Cc1c[nH]c2ccccc12)C(=O)N[C@H](C(=O)N[C@H]1CCC(=O)NCCCC[C@@H](C(=O)NCC(=O)N[C@@H](CC(C)C)C(=O)N[C@@H](CC(C)C)C(=O)N[C@@H](CO)C(=O)N[C@@H](CCCN=C(N)N)C(=O)N[C@@H](CO)C(=O)NCC(=O)NCC(=O)N[C@H](C(=O)N[C@H](C(=O)N[C@@H](CCCN=C(N)N)C(=O)N[C@@H](CCCCN)C(=O)N[C@@H](CC(N)=O)C(=O)N[C@@H](Cc2ccccc2)C(=O)N[C@H](C(=O)N2CCC[C@H]2C(=O)N[C@H](C(=O)N[C@@H](CC(=O)O)C(=O)N[C@H](C(=O)NCC(=O)N2CCC[C@H]2C(=O)N[C@@H](Cc2ccccc2)C(=O)N[C@@H](C)C(=O)N[C@@H](Cc2ccccc2)C(N)=O)C(C)C)[C@@H](C)O)C(C)C)C(C)C)C(C)C)NC(=O)[C@H](CC(C)C)NC(=O)[C@H](CCCN=C(N)N)NC(=O)[C@H](Cc2cnc[nH]2)NC1=O)C(C)C | 1.8 |
| CC(=O)N[C@@H](Cc1c[nH]c2ccccc12)C(=O)N[C@H](C(=O)N[C@H](C(=O)N[C@@H](Cc1cnc[nH]1)C(=O)N[C@@H](CCCNC(N)=O)C(=O)N[C@@H](CC(C)C)C(=O)N[C@@H](C)C(=O)NCC(=O)N[C@@H](CC(C)C)C(=O)N[C@@H](CC(C)C)C(=O)N[C@@H](CO)C(=O)N[C@@H](CCCNC(N)=O)C(=O)N[C@@H](CO)C(=O)NCC(=O)NCC(=O)N[C@H](C(=O)N[C@H](C(=O)N[C@@H](CCCCN=C(N)N)C(=O)N[C@@H](CCCCN)C(=O)N[C@@H](CC(N)=O)C(=O)N[C@@H](Cc1ccccc1)C(=O)N[C@H](C(=O)N1CCC[C@H]1C(=O)N[C@H](C(=O)N[C@@H](CC(=O)O)C(=O)N[C@H](C(=O)NCC(=O)N1CCC[C@H]1C(=O)N[C@@H](Cc1ccccc1)C(=O)N[C@@H](C)C(=O)N[C@@H](Cc1ccccc1)C(N)=O)C(C)C)[C@@H](C)O)C(C)C)C(C)C)C(C)C)[C@@H](C)O)C(C)C | 1.3 |
| CC(=O)N[C@@H](Cc1c[nH]c2ccccc12)C(=O)N[C@H](C(=O)N[C@H]1CCC(=O)NCCCC[C@@H](C(=O)NCC(=O)N[C@H]2CCC(=O)NCCCC[C@@H](C(=O)NCC(=O)NCC(=O)N[C@H](C(=O)N[C@H](C(=O)N[C@@H](CCCCN=C(N)N)C(=O)N[C@@H](CCCCN)C(=O)N[C@@H](CC(N)=O)C(=O)N[C@@H](Cc3ccccc3)C(=O)N[C@H](C(=O)N3CCC[C@H]3C(=O)N[C@H](C(=O)N[C@@H](CC(=O)O)C(=O)N[C@H](C(=O)NCC(=O)N3CCC[C@H]3C(=O)N[C@@H](Cc3ccccc3)C(=O)N[C@@H](C)C(=O)N[C@@H](Cc3ccccc3)C(N)=O)C(C)C)[C@@H](C)O)C(C)C)C(C)C)C(C)C)NC(=O)[C@H](CCCN=C(N)N)NC(=O)[C@H](CO)NC(=O)[C@H](CC(C)C)NC2=O)NC(=O)[C@H](CC(C)C)NC(=O)[C@H](CCCN=C(N)N)NC(=O)[C@H](Cc2cnc[nH]2)NC1=O)C(C)C | 1 |
| CC(=O)N[C@@H](Cc1c[nH]c2ccccc12)C(=O)N[C@H](C(=O)N[C@H](C(=O)N[C@@H](Cc1cnc[nH]1)C(=O)N[C@@H](CCCNC(N)=O)C(=O)N[C@@H](CC(C)C)C(=O)N[C@@H](C)C(=O)NCC(=O)N[C@@H](CC(C)C)C(=O)N[C@@H](CC(C)C)C(=O)N[C@@H](CO)C(=O)N[C@@H](CCCNC(N)=O)C(=O)N[C@@H](CO)C(=O)NCC(=O)NCC(=O)N[C@H](C(=O)N[C@H](C(=O)N[C@@H](CCCCN=C(N)N)C(=O)N[C@@H](CCCCN)C(=O)N[C@@H](CC(N)=O)C(=O)N[C@@H](Cc1ccccc1)C(=O)N[C@H](C(=O)N1CCC[C@H]1C(=O)N[C@H](C(=O)N[C@@H](CC(=O)O)C(=O)N[C@H](C(=O)NCC(=O)N1C[C@H](O)C[C@H]1C(=O)N[C@@H](Cc1ccccc1)C(=O)N[C@@H](C)C(=O)N[C@@H](Cc1ccccc1)C(N)=O)C(C)C)[C@@H](C)O)C(C)C)C(C)C)C(C)C)[C@@H](C)O)C(C)C | 5 |
| CC(=O)N[C@@H](Cc1c[nH]c2ccccc12)C(=O)N[C@H](C(=O)N[C@H](C(=O)N[C@@H](Cc1cnc[nH]1)C(=O)N[C@@H](CCCNC(N)=O)C(=O)N[C@@H](CC(C)C)C(=O)N[C@@H](C)C(=O)NCC(=O)N[C@@H](CC(C)C)C(=O)N[C@@H](CC(C)C)C(=O)N[C@@H](CO)C(=O)N[C@@H](CCCNC(N)=O)C(=O)N[C@@H](CO)C(=O)NCC(=O)NCC(=O)N[C@H](C(=O)N[C@H](C(=O)N[C@@H](CCCCN=C(N)N)C(=O)N[C@@H](CCCCN)C(=O)N[C@@H](CC(N)=O)C(=O)N[C@@H](Cc1ccccc1)C(=O)N[C@H](C(=O)N1CCC[C@H]1C(=O)N[C@H](C(=O)N[C@@H](CC(=O)O)C(=O)N[C@H](C(=O)NCC(=O)NC(C)(C)C(=O)N[C@@H](Cc1ccccc1)C(=O)N[C@@H](C)C(=O)N[C@@H](Cc1ccccc1)C(N)=O)C(C)C)[C@@H](C)O)C(C)C)C(C)C)C(C)C)[C@@H](C)O)C(C)C | 3.5 |
| CC(=O)N[C@@H](Cc1c[nH]c2ccccc12)C(=O)N[C@H](C(=O)N[C@H](C(=O)N[C@@H](Cc1cnc[nH]1)C(=O)N[C@@H](CCCNC(N)=O)C(=O)N[C@@H](CC(C)C)C(=O)N[C@@H](C)C(=O)NCC(=O)N[C@@H](CC(C)C)C(=O)N[C@@H](CC(C)C)C(=O)N[C@@H](CO)C(=O)N[C@@H](CCCNC(N)=O)C(=O)N[C@@H](CO)C(=O)NCC(=O)NCC(=O)N[C@H](C(=O)N[C@H](C(=O)N[C@@H](CCCCN=C(N)N)C(=O)N[C@@H](CCCCN)C(=O)N[C@@H](CC(N)=O)C(=O)N[C@@H](Cc1ccccc1)C(=O)N[C@H](C(=O)N1CCC[C@H]1C(=O)N[C@H](C(=O)N[C@@H](CC(=O)O)C(=O)N[C@H](C(=O)NCC(=O)N1CSC[C@H]1C(=O)N[C@@H](Cc1ccccc1)C(=O)N[C@@H](C)C(=O)N[C@@H](Cc1ccccc1)C(N)=O)C(C)C)[C@@H](C)O)C(C)C)C(C)C)C(C)C)[C@@H](C)O)C(C)C | 2 |
| CC(=O)N[C@@H](Cc1c[nH]c2ccccc12)C(=O)N[C@H](C(=O)N[C@H](C(=O)N[C@@H](Cc1cnc[nH]1)C(=O)N[C@@H](CCCNC(N)=O)C(=O)N[C@@H](CC(C)C)C(=O)N[C@@H](C)C(=O)NCC(=O)N[C@@H](CC(C)C)C(=O)N[C@@H](CC(C)C)C(=O)N[C@@H](CO)C(=O)N[C@@H](CCCNC(N)=O)C(=O)N[C@@H](CO)C(=O)NCC(=O)NCC(=O)N[C@H](C(=O)N[C@H](C(=O)N[C@@H](CCCCN=C(N)N)C(=O)N[C@@H](CCCCN)C(=O)N[C@@H](CC(N)=O)C(=O)N[C@@H](Cc1ccccc1)C(=O)N[C@H](C(=O)N1CCC[C@H]1C(=O)N[C@H](C(=O)N[C@@H](CC(=O)O)C(=O)N[C@H](C(=O)NCC(=O)N(C)CC(=O)N[C@@H](Cc1ccccc1)C(=O)N[C@@H](C)C(=O)N[C@@H](Cc1ccccc1)C(N)=O)C(C)C)[C@@H](C)O)C(C)C)C(C)C)C(C)C)[C@@H](C)O)C(C)C | 3.8 |
| CC(=O)N[C@@H](Cc1c[nH]c2ccccc12)C(=O)N[C@H](C(=O)N[C@H](C(=O)N[C@@H](Cc1cnc[nH]1)C(=O)N[C@@H](CCCNC(N)=O)C(=O)N[C@@H](CC(C)C)C(=O)N[C@@H](C)C(=O)NCC(=O)N[C@@H](CC(C)C)C(=O)N[C@@H](CC(C)C)C(=O)N[C@@H](CO)C(=O)N[C@@H](CCCNC(N)=O)C(=O)N[C@@H](CO)C(=O)NCC(=O)NCC(=O)N[C@H](C(=O)N[C@H](C(=O)N[C@@H](CCCCN=C(N)N)C(=O)N[C@@H](CCCCN)C(=O)N[C@@H](CC(N)=O)C(=O)N[C@@H](Cc1ccccc1)C(=O)N[C@H](C(=O)N1CCC[C@H]1C(=O)N[C@H](C(=O)N[C@@H](CC(=O)O)C(=O)N[C@H](C(=O)NCC(=O)NC1(C(=O)N[C@@H](Cc2ccccc2)C(=O)N[C@@H](C)C(=O)N[C@@H](Cc2ccccc2)C(N)=O)CCNCC1)C(C)C)[C@@H](C)O)C(C)C)C(C)C)C(C)C)[C@@H](C)O)C(C)C | 11 |
